In publication PMC12799219, “In vitro and in vivo studies on the activity and selectivity of butoconazole in experimental infection by Trypanosoma cruzi” (Memórias do Instituto Oswaldo Cruz, 2026):

Assay: In vivo pharmacokinetic study, plasma levels by LC-MS/MS
Design: species or system BALB/c mice
Conditions: mice, single dose 100 mg/kg i.p.
Description: In vivo pharmacokinetic study - Adult male specific-pathogen-free BALB/c mice, provided by the Faculty of Veterinary Sciences, National University of La Plata (FCV-UNLP) were used. Animals were housed in cages with four animals per cage, under a 12 h light/dark cycle and controlled temperature, provided with water and food ad libitum and environmental enrichment. A minimum period of six days was given after transport for physiological acclimatisation before any procedure. Five groups of mice (n = 3 per group) were used, one per sampling time. […] Plasma was obtained immediately after blood collection by centrifugation for 10 min at 4,000 rpm and conserved at -17 °C until quantification. […]
The equipment used was a Waters Alliance 2695 HPLC coupled to a tandem quadrupole mass spectrometer, Premier XE (Waters Corp.), equipped with an electrospray ionisation source operating in positive mode (ESI+). […] The mass spectrometer was configured to operate in multiple reaction monitoring (MRM) mode, employing two mass transitions for the compound, one for quantification (411.0 > 164.9) and the other for confirmation (413.2 > 164.9).
Unbound drug concentrations in plasma were estimated by multiplying the analytically determined total drug concentrations by the unbound fraction predicted by Deep-PK.[27]

Compound: Clc1ccc(CCC(Cn2ccnc2)Sc2c(Cl)cccc2Cl)cc1 (centres unmarked) [BTZ, butoconazole]
- mean peak total plasma concentration: 25.9 µM
- time of mean peak plasma concentration: 2 h
